In one series the test system is IL-1. The series can be described thus: Inhibition of upregulation of inflammatory mediators: IL-1. The following applies: according to the dose and even at low concentrations. The source says: (§1) It can therefore be used as an outstanding alternative or as an addition to other already well-known anti-inflammatory compounds (active substances) in cosmetic and pharmaceutical preparations or similar as an anti-inflammatory active substance.

A short description of series [1]: Investigations of the chemical characteristics (stability). It counts as physicochemical. The text has this:
Furthermore, once the inventive compound of formula 1 had been incorporated into inventive cosmetic and pharmaceutical preparations no discoloration of this preparation was detected.

Series [2] has as its system TNF-alpha (tumor necrosis factor alpha). Briefly: Inhibition of upregulation of inflammatory mediators: TNF-alpha. The following applies: according to the dose and even at low concentrations.
Excerpt: as §1

The subject of the next series is PGE-2 (prostaglandin E2). The series can be described thus: Inhibition of upregulation of inflammatory mediators: PGE-2. As to conditions: according to the dose and even at low concentrations.
Excerpt: as §1

The subject of the next series is IL-6. Briefly: Inhibition of upregulation of inflammatory mediators: IL-6. As to conditions: according to the dose and even at low concentrations.
Excerpt: as §1

A short description of series [3]: Sensitization and irritation test of the compound itself. As to conditions: test concentration of 50% by weight. The source says:
The inventive compound of formula 1 with an anti-inflammatory effect can also be used as a component of inventive scent compositions (odorous substance compositions) and for example to give a perfumed finished product an anti-inflammatory effect. Since the proportion of perfume in a cosmetic finished product is often around 1% by weight, a scent containing the inventive compound of formula 1, will preferably include or be comprised approximately 1-50% by weight of the compound of formula 1.

Consider one compound from patent publication US20090208434A1, “3-(4-hydroxy-3-methoxyphenyl)-1-(4-hydroxyphenyl)-1-propanone and its use in cosmetic and pharmaceutical preparations” (SYMRISE GmbH & Co. KG, priority 2008, published 2009).

Regarding `COc1cc(CCC(=O)c2ccc(O)cc2)ccc1O` [compound of formula 1, 3-(4-hydroxy-3-methoxyphenyl)-1-(4-hydroxyphenyl)-1-propanone], in the series on IL-1, the “upregulation of IL-1 caused by extrinsic and intrinsic factors” value is given as “inhibiting the upregulation”. Further, in series [1], the photostability entry is “high photostability” and the temperature stability result is “high temperature stability”. In series [1] (broad pH range), the “stability in a broad pH range” value is on record as “high stability in a broad pH range”. The “upregulation of TNF-alpha caused by extrinsic and intrinsic factors” value in series [2] was “inhibiting the upregulation”. In the series with PGE-2 (prostaglandin E2), the “upregulation of PGE-2 caused by extrinsic and intrinsic factors” value is reported as “inhibiting the upregulation”. The “upregulation of IL-6 caused by extrinsic and intrinsic factors” value in the series with IL-6 is listed as “inhibiting the upregulation”. In addition, in series [3], the irritation result is on record as “did not cause irritation” and the sensitization entry was “not sensitizing”.
